8 molecules from US7368582B2, “Amidomethyl-substituted 2-(4-sulfonylamino)-3-hydroxy-3,4-dihydro-2H-chromen-6-yl compounds, a process and intermediates for their production, and pharmaceutical compositions containing them” (Solvay Pharmaceuticals GmbH, priority 2003, dated 2008) can be followed below.

In assay [1] the test system is left atrium of rats' hearts. In words: Functional refractory period prolongation on isolated left atria of rats' hearts in vitro. The settings on record: 10 μM. On the set-up: species or system rat (Sprague-Dawley). On the procedure: 3. Investigation of the Functional Effectiveness of the Substances on the Atrium of Rats' Hearts in Vitro
In this test model it is determined to what extent the Kv 1.5-blocking substances of Formula I result in a prolongation of the functional refractory period in the left atrium of rats. The refractory period is the minimum possible elapsed time between the basic stimulus and additional stimulus in which a renewed contraction can be triggered. The extent of the prolongation of the functional refractory period is a measurement of the antiarrhythmic effectiveness of the substances according to the invention. The functional refractory period is determined by testing on the electrically stimulated preparation at what elapsed time from the preceding contraction a renewed contraction can be triggered by additional electrical stimuli.
The hearts were removed from freshly sacrificed rats (Sprague-Dawley, Charles-River, Germany). The left atria were isolated and fastened to force transducers in a temperature-controlled (30° C.), gasified (O2 95%, CO2 5%) organ bath which was filled with modified Tyrode solution (all values in mM: NaCl 137; KCl 2.7; CaCl2 1.8; MgCl2 0.8; NaHCO3 11.9; NaH2PO4 0.6; glucose 5). In order to trigger regular contractions, the preparations were electrically stimulated (rectangular pulses, pulse magnitude 3.5× threshold stimulus, pulse width 1.5 ms, frequency 1 Hz). Initially, the initial value of the functional refractory period was determined by applying extra pulses in addition to the basic stimulus, the elapsed time from the preceding basic stimulus being shortened until no further additional contraction could be triggered. Then the cumulative addition of increasing concentrations (0.1-10 μM) of the substances of Formula I took place at intervals of 20 min. each, the refractory period being determined again in each case 18 min. after the addition had taken place. Before the measurement, stock solutions of the test substances (3.2 and 0.32 mM in 100% DMSO) were prepared. In order to achieve the desired final concentrations of the substances (0.1-10 μM) in the organ bath (volume 100 ml), corresponding volumes of these stock solutions were then poured into the organ bath.
In each case the prolongation of the functional refractory period (FRP) in the left atrium of the rats' hearts in milliseconds observed after the addition of 10 μM of the respective substance of Formula I to the atrial preparations was given as characteristic variable.

The next assay deals with T1, Kv 1.3-potassium channel (Homo sapiens, UniProt P22001).
T1 construct: expressed in transfected cells; host or cells: CHO cells, stably transfected with the Kv 1.3 plasmid using DMRIE-C
T1 sequence (P22001 whole entry): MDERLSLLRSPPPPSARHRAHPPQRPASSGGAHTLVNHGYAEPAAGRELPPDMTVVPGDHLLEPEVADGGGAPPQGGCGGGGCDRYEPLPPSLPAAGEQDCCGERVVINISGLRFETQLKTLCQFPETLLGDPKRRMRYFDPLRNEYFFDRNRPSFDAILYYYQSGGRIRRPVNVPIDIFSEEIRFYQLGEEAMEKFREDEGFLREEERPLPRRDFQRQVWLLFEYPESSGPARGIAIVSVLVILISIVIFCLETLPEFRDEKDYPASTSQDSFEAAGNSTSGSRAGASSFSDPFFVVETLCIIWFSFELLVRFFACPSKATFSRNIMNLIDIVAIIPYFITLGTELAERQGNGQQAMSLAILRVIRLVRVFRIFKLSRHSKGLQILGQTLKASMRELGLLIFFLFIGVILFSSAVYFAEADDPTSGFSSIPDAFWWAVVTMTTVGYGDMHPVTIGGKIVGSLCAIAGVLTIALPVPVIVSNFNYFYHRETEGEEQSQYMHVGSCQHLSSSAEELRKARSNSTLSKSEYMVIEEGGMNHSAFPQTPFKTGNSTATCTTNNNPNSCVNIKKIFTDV
As to the kind of experiment: In-vitro Kv 1.3-potassium channel-blocking effect (membrane potential-sensitive fluorescent dye in transfected CHO cells). The conditions noted are these: 10 μM test substance; CHO cells transfected with Kv 1.3; relative to reference margatoxin. It counts as cell-based. From the text: 2. In-Vitro Investigation of the Kv 1.3-Potassium Channel-Blocking Effect of the Substances
In this test model, known oocytes of the Chinese hamster (═CHO) are used which are stably transfected with the Kv 1.3-potassium channel. The blockade of the cell-inherent Kv 1.3-potassium channel activity in the transfected cells is accompanied by a positive shift in the membrane potential from approx. −40 mV to −30 mV, whereas in the wild-type CHO cells investigated in parallel no significant shift in the membrane potential is triggered. A change in the membrane potential is thus connected to the reduction in the Kv 1.3-potassium channel activity. By blocking the Kv 1.3-potassium channels e.g. with substances of Formula I and the resulting change in the membrane potential, an accumulation of a membrane potential-sensitive fluorescent dye in intracellular compartments of the oocytes and ultimately increasing fluorescence occurs. The change in the membrane potential of the oocytes is therefore measured indirectly via the increase in fluorescence of the membrane potential-senstive dyes.
The cells were transfected with the Kv 1.3 plasmid in known manner with a commercially obtainable transfection reagent (DMRIE-C from Gibco BRL, Germany). The successful transfection was verified by immunofluorescence and by “patch-clamp” investigations of the potassium ion current. The fluorescence measurements were performed on a Tecan Safire fluorescence reader from Tecan, Germany. In each case, the increase in the fluorescent intensity caused by the blockade of the Kv 1.3-potassium channels in the oocytes with substances of Formula I in a concentration of 10 μM was determined as characteristic variable. The increase in the fluorescent intensity was given in each case in percent (%) compared with an increase in the fluorescent intensity caused by the reference substance margatoxin. Margatoxin is known as a selective Kv 1.3-potassium channel blocker (see e.g. M. Garcia-Calvo et al., J. Biol. Chem. 268 (1993) 18866-18874).

In assay [2] the test system is hearts of anaesthetised cats. As to the kind of experiment: Atrial and ventricular fibrillation threshold in anaesthetised cats in vivo. Details: species or system cat. The conditions noted are these: anaesthetized cats, dose 30 μmol/kg i.v.; for AFT (increase in the atrial fibrillation threshold) / VFT (increase in the ventricular fibrillation threshold): percent of value before administration. From the text: 5. Investigation of the Functional Effectiveness of the Substances on the Hearts of Anaesthetised Cats in Vivo
In the test model shown below, it was shown that the substances according to the invention at most have a marked atrial-selective effect on the heart. After administration of the substances according to the invention, a significant increase in the atrial fibrillation threshold—i.e. the current intensity at which atrial fibrillation occurs—was observed. At the same time, on the other hand, the ventricular fibrillation threshold is influenced only minimally.
Living cats were anaesthetised with chloralose/urethane (50/300 mg/kg i.v.) and were ventilated with ambient air. Then, following thoracotomy, stimulating electrodes were attached to the right atrium and the ventricle. The atrial and ventricular fibrillation threshold was determined in known manner by administration of rectangular pulses of increasing current intensity until atrial or ventricular fibrillation occurred (for performance see in detail: Br. J. Pharmac. 17 (1961) 167; Hdb. exp. Pharmacol. XVI/3 (1975) 131; Pharmacol. Res. 25 Suppl. 2 (1992) 156). The test substances of Formula I were dissolved in propylene glycol (80%) and administered intravenously in increasing doses (5-30 μmol/kg). Atrial and ventricular fibrillation thresholds were then determined at 5-minute intervals in known manner after the addition of the respective dose. The increase in the respective fibrillation threshold due to the substances investigated was expressed in percent of the value before administration of substance, i.e. a doubling of the fibrillation threshold corresponds to an increase of 100%.

In the case of `CCc1ccc(S(=O)(=O)N(CC(C)(C)C)[C@@H]2c3cc(CC(=O)NCc4ccccc4)ccc3OC(C)(C)[C@H]2O)cc1` [Example 7], the FRP prolongation in assay [1] was found to be 24 ms.

For `CCc1ccc(S(=O)(=O)N[C@@H]2c3cc(CC(=O)N[C@H]4CCCc5ccccc54)ccc3OC(C)(C)[C@H]2O)cc1` [Example 9], on Kv 1.3-potassium channel, the “Increase in the fluorescent intensity (% margatoxin)” value (from here on “Increase … (% margatoxin)”) is reported as 107 % margatoxin. In assay [1], this molecule displayed an FRP prolongation of 30 ms. Besides, in assay [2], the “Selectivity factor (AFT:VFT)” value turned out to be 7, the “AFT (increase in the atrial fibrillation threshold)” value stood at 213% and the “VFT (increase in the ventricular fibrillation threshold)” value was 29%.

For `CCc1ccc(S(=O)(=O)N(CC(C)(C)C)C2c3cc(CC(=O)NCCc4ccccc4)ccc3OC(C)(C)C2O)cc1` (stereo not drawn) [Example 10], the “Increase … (% margatoxin)” value on Kv 1.3-potassium channel is recorded as 82 % margatoxin. The same molecule returned an FRP prolongation in assay [1] of 20 ms. Moreover, in assay [2], the “Selectivity factor (AFT:VFT)” value was 13, the “AFT (increase in the atrial fibrillation threshold)” value was determined as 241% and the “VFT (increase in the ventricular fibrillation threshold)” value is recorded as 19%.

The molecule `CCc1ccc(S(=O)(=O)N(CC(C)(C)C)[C@H]2c3cc(CC(=O)NCc4ccccc4)ccc3OC(C)(C)[C@@H]2O)cc1` [Example 8] gave an FRP prolongation in assay [1] of 17 ms.

Consider `CC1(C)Oc2ccc(CC(=O)NC3CCCc4ccccc43)cc2C(NS(=O)(=O)c2cccc(F)c2)C1O` (mixture of isomers) [Example 13], for which the “Increase … (% margatoxin)” value at Kv 1.3-potassium channel worked out at 53 % margatoxin. For the same molecule, the FRP prolongation in assay [1] is 28 ms.

`CCc1ccc(S(=O)(=O)NC2c3cc(CC(=O)N4CCN(c5ccccc5)CC4)ccc3OC(C)(C)C2O)cc1` (stereo not drawn) [Example 16] showed an FRP prolongation in assay [1] of 20 ms.

In assay [1], `CCc1ccc(S(=O)(=O)N(CC(C)(C)C)C2c3cc(CC(=O)NCc4ccccc4)ccc3OC(C)(C)C2O)cc1` (stereo not drawn) [Example 4, N-benzyl-2-{4-[[(4-ethylphenyl)sulfonyl](neopentyl)amino]-3-hydroxy-2,2-dimethyl-3,4-dihydro-2H-chromen-6-yl}acetamide] yielded an FRP prolongation of 17 ms. In assay [2], the “Selectivity factor (AFT:VFT)” value amounted to 12, the “AFT (increase in the atrial fibrillation threshold)” value was 226% and the “VFT (increase in the ventricular fibrillation threshold)” value is 19%.

As for `CCc1ccc(S(=O)(=O)N[C@@H]2c3cc(CC(=O)N[C@@H]4CCCc5ccccc54)ccc3OC(C)(C)[C@H]2O)cc1` [Example 2, 2-((3S,4R)-4-{[(4-ethylphenyl)sulfonyl]amino}-3-hydroxy-2,2-dimethyl-3,4-dihydro-2H-chromen-6-yl)-N-[(1R)-1,2,3,4-tetrahydronaphth-1-yl]acetamide], at Kv 1.3-potassium channel, the “Increase … (% margatoxin)” value came out at 72 % margatoxin. Also, in assay [1], the FRP prolongation came to 20 ms. Further, in assay [2], the “Selectivity factor (AFT:VFT)” value came to 17, the “AFT (increase in the atrial fibrillation threshold)” value is 261% and the “VFT (increase in the ventricular fibrillation threshold)” value is on record as 15%.
